According to patent US20070196850A1, “Identification of aging genes through large-scale analysis” (priority 2006, published 2007):
Like-named read-outs stand apart in the source and are kept apart here.

System: yeast cells (BY4742)
Format: cell-based, Saccharomyces cerevisiae
Experimental: FIG. 2 illustrates replicative life span (“RLS”) analysis in yeast. […] A mother cell is a yeast cell that has produced one or more daughter cells. […] The total number of mitotic divisions completed by a given mother cell is the replicative life span for that mother cell. One indicator of senescence in yeast is the inability to produce daughter cells.
A large-scaled, life-span analysis is performed as follows. Approximately three days before initiating a life-span-determination assay, a set of 95 strains contained in a yeast alpha-haploid-deletion collection (Open Biosystems), is transferred to a 96-well plate containing YPDagar using a FX robot, so that each strain occupies one well of a 96-well plate. Concurrently, “wildtype” reference cells (BY4742) are plated within an empty well of the 96-well test plate. For 1-2 days, plated cells are allowed to grow on rich medium, such as YPD, at 30° C. Cells are patched onto life-span-measuring plates containing YPD so that approximately 12 strains are plated per plate the night, or approximately 12 hours, before initiating life-span analysis. A life-span experiment is initiated by gridding a region of the plate distal to growing cells, to which 5 cells of each strain of 12 strains are transferred by micromanipulation. Cells are incubated for two hours at 30° C. Then, virgin daughter cells of each deletion variant cell are selected, and original mother cells are removed. Such virgin daughter cells are monitored for de novo production of daughters at 2-3 hour intervals. Produced daughters are individually removed, and tabulated. Mother cells are placed back at 30° C. to allow continued growth. During evening hours, cells are moved to 4° C. so that the cell division rate is reduced to one cell division per evening. The following day, cells are placed at 30° C. to resume growth. This process is continued for a period of time, approximately two weeks, to allow cells of each variant strain to exhaust its proliferative potential. The total number of daughter cells produced by each mother variant cell is tabulated, and determined RLS values are entered into a database.
To perform the life span experiment, 15 μg/mL diazaborine A was added to standard yeast life span plates (YPD). Cells are patched to these plates the night prior to initiation of the life span. The next morning, individual cells were moved to a location on the plate distant from the patch and allow them to divide. The first daughters produced by each mother cell are used to initiate the life span experiment. Subsequently, each daughter cell that these cells produce is removed with a micromanipulator and tabulations are kept.

SMILES | replicative life span in yeast (exposure of yeast cells to MSX) | life span (yeast, 50 uM) | life span (yeast, 100 uM) | life span (yeast, 1 mM) | increase in mean replicative life span (maximal life span extension) (yeast, 1 mM, preliminary experiments) | life span (yeast, 2.5 mM) | life span of yeast cells on drug treatment (yeast cells treated with drug vs no drug control)
CS(=N)(=O)CC[C@H](N)C(=O)O (stereo partly shown) [MSX, methionine sulfoximine] | extends replicative life span | significantly increases life span | significantly increases life span | significantly increases life span | 25-30% | significantly increases life span | –
C[C@@H]1C[C@@H]([C@H](O)CC2CC(=O)NC(=O)C2)C(=O)[C@@H](C)C1 [cycloheximide] | – | – | – | – | – | – | does not increase life span
